The values below come from patent US20220133699A1, “Antibacterial Compositions” (Singapore Eye Research Institute, priority 2019, published 2022).

For experiment [1], the system named is KLPN 8852. Nature of the experiment: MIC of antibiotics alone against KLPN 8852 (Table 1). Type of experiment: cell-based, Klebsiella pneumonia. Conditions: MIC dil in Full strength MHB, antibiotic alone. As to the method: (§1) KLPN 8852, 27025 and 24076 are carbapenemase resistant (“CRE”) strains of the common bacteria, KLPN, Klebsiella pneumonia. […] The ability of amikacin as well as three carbapenem antibiotics (meropenem, imipenem, and doripenem) to kill each of these strains was tested using minimum inhibitory concentration, or MIC, as a measure of effectiveness.

For experiment [2], the system named is KLPN 27025. The experiment can be described thus: MIC of antibiotics alone against KLPN 27025 (Table 1). It counts as cell-based, Klebsiella pneumonia. To be noted: MIC dil in Full strength MHB, antibiotic alone. As to the method: as §1
The subject of experiment [3] is KLPN 24076. The experiment can be described thus: MIC of antibiotics alone against KLPN 24076 (Table 1). Type of experiment: cell-based, Klebsiella pneumonia. To be noted: MIC dil in Full strength MHB, antibiotic alone. As to the method:
as §1

The subject of experiment [4] is ACBA 1010. The experiment can be described thus: MIC of antibiotics alone against ACBA 1010 (Table 1). To be noted: MIC dil in Full strength MHB, antibiotic alone. It counts as cell-based, Acinetobacter baumannii.
Experiment [5] relates to KLPN 24076. Nature of the experiment: microbe, parasite or virus in culture. To be noted: for Synergy MIC / MIC: KLPN 24076; for MIC: Klebsiella pneumoniae, agent alone, read-out: Monotherapy MIC. It counts as cell-based, Klebsiella pneumonia. As to the method: (§2) The ability of B2088 [RGRKVVRR)2KK] to kill each of CRE strains KLPN 8852, 27025 and 24076 was tested by itself (as a monotherapy), as well as in combination with one of meropenem, imipenem, or doripenem (as a combination therapy) using minimum inhibitory concentration, or MIC, as a measure of effectiveness. Synergism MIC indicates the MIC of each of B2088 or the carbapenem antibiotic when used as an antibacterial composition.

The test system of experiment [6] is KLPN 27025. Nature of the experiment: microbe, parasite or virus in culture. It counts as cell-based, Klebsiella pneumonia. To be noted: for Synergy MIC / MIC: KLPN 27025; for MIC: Klebsiella pneumoniae, agent alone, read-out: Monotherapy MIC. As to the method:
as §2

In experiment [7] the test system is KLPN 8852. Nature of the experiment: microbe, parasite or virus in culture. Type of experiment: cell-based, Klebsiella pneumonia. Conditions: for Synergy MIC / MIC: KLPN 8852; for MIC: Klebsiella pneumoniae, agent alone, read-out: Monotherapy MIC. As to the method:
as §2

In experiment [8] the test system is ACBA 1010. The experiment can be described thus: microbe, parasite or virus in culture. Type of experiment: cell-based, Acinetobacter baumannii. Conditions: for Synergy MIC / MIC: ACBA 1010; for MIC: Acinetobacter baumannii, agent alone, read-out: Monotherapy MIC. As to the method:
The ability of B2088 [RGRKVVRR)2KK] to kill strain ACBA 1010 was tested by itself (as a monotherapy), as well as in combination with one of meropenem, imipenem, or doripenem (as a combination therapy) using minimum inhibitory concentration, or MIC, as a measure of effectiveness. Synergism MIC indicates the MIC of each of B2088 or the carbapenem antibiotic when used as an antibacterial composition.

Where [9] appears, read: MIC of each agent in combination B2088 + Doripenem.
The mark [10] stands for this setting: MIC of each agent in combination B2088 + Imipenem.
The mark [11] stands for this setting: MIC of each agent in combination B2088 + Meropenem.

Structures are written as SMILES. Positions of bridges follow the written chain, without caps; N, C: chain ends. Residues, ends and D or L forms follow the SMILES beside them. Chains are numbered I, II in the order given.

On to `NCC[C@H](O)C(=O)N[C@@H]1C[C@H](N)[C@@H](O[C@H]2O[C@H](CN)[C@@H](O)[C@H](O)[C@H]2O)[C@H](O)[C@H]1O[C@H]1O[C@H](CO)[C@@H](O)[C@H](N)[C@H]1O` [Amikacin, amikacin], for which the MIC in the experiment on KLPN 8852 [1] turned out to be 6.25 µg/mL; in the experiment with KLPN 27025 [2], 0.78 µg/mL; with KLPN 24076 [3], 1.56 µg/mL; with ACBA 1010 [4], 1.56 µg/mL.
On to `CC(C)[C@H](NC(=O)[C@H](CCCCN)NC(=O)[C@H](CCCNC(=N)N)NC(=O)CNC(=O)[C@@H](N)CCCNC(=N)N)C(=O)N[C@H](C(=O)N[C@@H](CCCNC(=N)N)C(=O)N[C@@H](CCCNC(=N)N)C(=O)NCCCC[C@H](NC(=O)[C@H](CCCNC(=N)N)NC(=O)[C@H](CCCNC(=N)N)NC(=O)[C@@H](NC(=O)[C@@H](NC(=O)[C@H](CCCCN)NC(=O)[C@H](CCCNC(=N)N)NC(=O)CNC(=O)[C@@H](N)CCCNC(=N)N)C(C)C)C(C)C)C(=O)N[C@@H](CCCCN)C(=O)O)C(C)C` [B2088, [RGRKVVRR)2KK]] (I: H-RGRKVVRRKK-OH / II: H-RGRKVVRR; amide I:9-II:C; N-terminus and C-terminus assumed), for which the “Monotherapy MIC” value in the experiment with KLPN 24076 [5] turned out to be 6.25 µg/mL; in the experiment on KLPN 27025 [6], 6.25 µg/mL; in the experiment on KLPN 8852 [7], 25 µg/mL; in the experiment on ACBA 1010 [8], 6.25 µg/mL. Also, the “Synergy MIC” value with KLPN 24076 [5] (setting [9]) is 1 µg/mL; with KLPN 24076 [5] (setting [10]) it was 1 µg/mL; in the experiment with KLPN 24076 [5] (setting [11]) it was 1 µg/mL; in the experiment on KLPN 27025 [6] (setting [9]), 0.01562 µg/mL; in the experiment with KLPN 27025 [6] (setting [10]), 1 µg/mL; in the experiment with KLPN 27025 [6] (setting [11]), 0.0625 µg/mL. Also, the “Synergy MIC” value worked out at 0.25 µg/mL in the experiment with KLPN 8852 [7] (setting [9]); 0.5 µg/mL with KLPN 8852 [7] (setting [10]); 1 µg/mL in the experiment with KLPN 8852 [7] (setting [11]); 0.0625 µg/mL in the experiment on ACBA 1010 [8] (setting [9]); 1 µg/mL in the experiment with ACBA 1010 [8] (setting [10]); 1 µg/mL in the experiment with ACBA 1010 [8] (setting [11]).
As to `C[C@@H](O)[C@H]1C(=O)N2C(C(=O)O)=C(S[C@@H]3CN[C@H](CNS(N)(=O)=O)C3)[C@H](C)[C@H]12` [Doripenem, doripenem], the MIC was more than 50 µg/mL in the experiment on KLPN 8852 [1]; 25 µg/mL in the experiment with KLPN 27025 [2]; 25 µg/mL in the experiment with KLPN 24076 [3]; 0.195 µg/mL in the experiment with ACBA 1010 [4]; 25 µg/mL with KLPN 24076 [5]; 25 µg/mL in the experiment with KLPN 27025 [6]. Besides, the MIC in the experiment on KLPN 8852 [7] was more than 50 µg/mL; in the experiment on ACBA 1010 [8] it was less than 0.0975 µg/mL. Further, the “Synergy MIC” value in the experiment with KLPN 24076 [5] (setting [9]) turned out to be 1 µg/mL; with KLPN 27025 [6] (setting [9]), 0.007813 µg/mL; with KLPN 8852 [7] (setting [9]), 0.125 µg/mL; in the experiment on ACBA 1010 [8] (setting [9]), 0.007813 µg/mL.
As for `C[C@@H](O)[C@H]1C(=O)N2C(C(=O)O)=C(SCCN=CN)C[C@H]12` [Imipenem, imipenem], the MIC is more than 50 µg/mL in the experiment with KLPN 8852 [1]; more than 50 µg/mL in the experiment on KLPN 27025 [2]; more than 50 µg/mL with KLPN 24076 [3]; 25 µg/mL in the experiment with ACBA 1010 [4]; more than 50 µg/mL in the experiment with KLPN 24076 [5]; more than 50 µg/mL with KLPN 27025 [6]. Further, the figures for the MIC in the experiment on KLPN 8852 [7] and in the experiment on ACBA 1010 [8] were more than 50 µg/mL and 12.5 µg/mL, respectively. Also, the “Synergy MIC” value in the experiment on KLPN 24076 [5] (setting [10]) turned out to be 1 µg/mL; in the experiment with KLPN 27025 [6] (setting [10]) it was 1 µg/mL; in the experiment with KLPN 8852 [7] (setting [10]), 0.5 µg/mL; with ACBA 1010 [8] (setting [10]), 1 µg/mL.
Consider `C[C@@H](O)[C@H]1C(=O)N2C(C(=O)O)=C(S[C@@H]3CN[C@H](C(=O)N(C)C)C3)[C@H](C)[C@H]12` [Meropenem, meropenem], for which the MIC with KLPN 8852 [1] was more than 50 µg/mL; with KLPN 27025 [2], more than 50 µg/mL; with KLPN 24076 [3], more than 50 µg/mL; in the experiment on ACBA 1010 [4], 1.56 µg/mL; with KLPN 24076 [5], more than 50 µg/mL; in the experiment with KLPN 27025 [6], 50 µg/mL. For the same compound, the results for the MIC in the experiment on KLPN 8852 [7] and with ACBA 1010 [8] were more than 50 µg/mL and 1.56 µg/mL, respectively. In addition, the “Synergy MIC” value amounted to 1 µg/mL in the experiment on KLPN 24076 [5] (setting [11]), 0.007813 µg/mL in the experiment on KLPN 27025 [6] (setting [11]), 1 µg/mL with KLPN 8852 [7] (setting [11]) and 0.5 µg/mL in the experiment with ACBA 1010 [8] (setting [11]).
